Results as given in ChEMBL document CHEMBL1201862, “PubChem BioAssay data set” (2004).
Activity calls are given as the source filed them.

What was measured:
[1] = target: Glucose-6-phosphate 1-dehydrogenase (Homo sapiens, UniProt P11413); experiment: inhibition of Homo sapiens G6PD, dose series – biochemical, fluorescence, selectivity assay for P. falciparum G6PD inhibitor project, dose response (AID 504792); assay type: functional
[2] = target: T1, C-C chemokine receptor type 6 (Homo sapiens, UniProt P51684); experiment: antagonism of CCR6 beta-arrestin recruitment – cell-based, luminescent beta-arrestin readout, dose response (AID 504728); assay type: functional
T1 sequence (P51684 whole entry): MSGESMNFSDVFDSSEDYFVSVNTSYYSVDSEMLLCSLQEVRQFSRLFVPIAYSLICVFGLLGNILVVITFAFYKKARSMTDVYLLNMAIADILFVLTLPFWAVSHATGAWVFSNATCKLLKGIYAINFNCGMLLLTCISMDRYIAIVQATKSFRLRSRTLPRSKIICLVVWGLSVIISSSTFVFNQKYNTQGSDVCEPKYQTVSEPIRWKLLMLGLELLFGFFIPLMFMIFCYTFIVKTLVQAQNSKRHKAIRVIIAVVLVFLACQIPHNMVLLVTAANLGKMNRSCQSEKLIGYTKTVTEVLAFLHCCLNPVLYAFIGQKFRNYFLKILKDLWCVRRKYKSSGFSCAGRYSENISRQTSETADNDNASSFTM

Beta-arrestin-1 = Beta-arrestin-1 (Homo sapiens, UniProt P49407); experiment: beta-arrestin/AP2 interaction blockers, potency – biochemical, cherry pick 1, beta2-adaptin appendage, flow cytometry, dose response (AID 588783); assay type: functional
[3] = target: T2, Mannose-6-phosphate isomerase (Homo sapiens, UniProt P34949); experiment: MPI inhibition at elevated mannose 6-phosphate – biochemical, fluorescence intensity, high mannose 6-phosphate, primary screen (AID 1220)
T2 sequence (P34949 whole entry): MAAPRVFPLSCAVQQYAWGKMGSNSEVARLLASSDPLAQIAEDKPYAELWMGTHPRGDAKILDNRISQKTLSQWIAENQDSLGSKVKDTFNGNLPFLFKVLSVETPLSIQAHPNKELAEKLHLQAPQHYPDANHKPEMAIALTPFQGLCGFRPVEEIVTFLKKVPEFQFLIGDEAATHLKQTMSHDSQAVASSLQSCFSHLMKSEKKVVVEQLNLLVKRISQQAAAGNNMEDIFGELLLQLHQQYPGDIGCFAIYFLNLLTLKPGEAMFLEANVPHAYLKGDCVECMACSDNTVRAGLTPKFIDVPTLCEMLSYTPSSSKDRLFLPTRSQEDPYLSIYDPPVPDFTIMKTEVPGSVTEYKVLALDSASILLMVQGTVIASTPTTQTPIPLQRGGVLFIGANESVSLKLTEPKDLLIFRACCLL

[4] = Luminescence-based cell-based high throughput dose response assay to identify activators of the DAF-12 from the parasite S. stercoralis (ssDAF-12).; assay type: functional
[5] = target: T3, Oxysterols receptor LXR-beta (Homo sapiens, UniProt P55055); experiment: LXR agonists, Gal4 luciferase reporter, dose response, counter-screen for ssDAF-12 agonist project, cell-based, luminescence, HEK293, S. stercoralis campaign (AID 720737); assay type: functional; conditions: read-out: IC50 (the source's name)
T3 sequence (P55055 whole entry): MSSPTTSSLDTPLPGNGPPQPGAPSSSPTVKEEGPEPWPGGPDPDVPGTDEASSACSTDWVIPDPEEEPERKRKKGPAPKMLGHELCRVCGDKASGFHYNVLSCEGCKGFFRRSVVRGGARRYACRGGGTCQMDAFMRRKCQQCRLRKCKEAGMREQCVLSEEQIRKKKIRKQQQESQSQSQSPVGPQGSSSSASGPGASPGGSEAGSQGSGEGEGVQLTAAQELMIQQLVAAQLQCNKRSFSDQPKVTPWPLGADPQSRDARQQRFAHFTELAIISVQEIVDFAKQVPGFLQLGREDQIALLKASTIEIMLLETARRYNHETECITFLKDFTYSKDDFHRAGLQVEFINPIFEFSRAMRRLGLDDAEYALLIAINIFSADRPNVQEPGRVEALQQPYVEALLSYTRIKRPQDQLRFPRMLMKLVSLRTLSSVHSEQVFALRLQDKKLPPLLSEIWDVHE

[6] = target: Megakaryocyte-associated tyrosine-protein kinase (Homo sapiens, UniProt P42679); assay type: functional;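 also: affinity measured as one member of a kinase panel (Navigating the Kinome) against MATK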
[7] = target: Protein kinase C zeta type (Homo sapiens, UniProt Q05513); assay type: functional;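 also: measured as one member of a broad kinase profiling panel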
[8] = target: Tyrosine-protein kinase receptor TYRO3 (Homo sapiens, UniProt Q06418); assay type: functional;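 also: TYRO3 value obtained as one member of a kinome-wide profiling panel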
SRSF protein kinase 1 = SRSF protein kinase 1 (Homo sapiens, UniProt Q96SB4); assay type: functional;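 also: measured as one member of a kinome-wide kinase profiling panel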
[9] = target: Tyrosine-protein kinase BTK (Homo sapiens, UniProt Q06187); assay type: functional
[10] = target: Fibroblast growth factor receptor 1 (Homo sapiens, UniProt P11362); assay type: functional
[11] = target: Tyrosine-protein kinase Lyn (Homo sapiens, UniProt P07948); assay type: functional;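 also: lyn as one member of a kinase panel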
Insulin receptor = Insulin receptor (Homo sapiens, UniProt P06213); assay type: functional;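 also: insulin receptor kinase tested as one member of a kinome-wide kinase panel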
[12] = target: Tyrosine-protein kinase Srms (Homo sapiens, UniProt Q9H3Y6); assay type: functional;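 also: SRMS measured as one member of a kinome-wide kinase profiling panel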
[13] = target: Glycogen synthase kinase-3 alpha (Homo sapiens, UniProt P49840); assay type: functional;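 also: GSK3A result taken from a broad kinome-wide kinase panel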
[14] = target: Insulin-like growth factor 1 receptor (Homo sapiens, UniProt P08069); experiment: Navigating the Kinome. Panel member name: IGF1R; assay type: functional
[15] = target: Interleukin-1 receptor-associated kinase 1 (Homo sapiens, UniProt P51617); assay type: functional;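 also: IRAK1 tested as one member of a kinome panel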
[16] = target: Maternal embryonic leucine zipper kinase (Homo sapiens, UniProt Q14680); assay type: functional
[17] = target: Vascular endothelial growth factor receptor 3 (Homo sapiens, UniProt P35916); assay type: functional;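 also: value from a kinome-wide profiling panel, with FLT4 as the panel member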
[18] = target: Tyrosine-protein kinase Fer (Homo sapiens, UniProt P16591); assay type: functional;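 also: FER tested as one member of a kinome panel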
[19] = target: Cyclin-dependent kinase 7 (Homo sapiens, UniProt P50613); assay type: functional;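 also: value comes from a kinome-wide kinase profiling panel in which CDK7 is one member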
[20] = target: cAMP-dependent protein kinase catalytic subunit alpha (Homo sapiens, UniProt P17612); assay type: functional
[21] = target: Macrophage colony-stimulating factor 1 receptor (Homo sapiens, UniProt P07333); assay type: functional;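 also: value comes from the Navigating the Kinome screening panel, CSF1R member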
[22] = target: Tyrosine-protein kinase FRK (Homo sapiens, UniProt P42685); assay type: functional;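 also: FRK tested as one member of a kinome panel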
Beta-galactosidase = Beta-galactosidase (Escherichia coli, UniProt Q8VNN2); experiment: PubChem AID 485352; assay type: functional
[23] = DRD fibroblast viability loss – cell-based, non-viral oncogenic, luminescence, dose response (AID 1934); assay type: functional; conditions: Homo sapiens

Sequence of Macrophage colony-stimulating factor 1 receptor (P07333 whole entry): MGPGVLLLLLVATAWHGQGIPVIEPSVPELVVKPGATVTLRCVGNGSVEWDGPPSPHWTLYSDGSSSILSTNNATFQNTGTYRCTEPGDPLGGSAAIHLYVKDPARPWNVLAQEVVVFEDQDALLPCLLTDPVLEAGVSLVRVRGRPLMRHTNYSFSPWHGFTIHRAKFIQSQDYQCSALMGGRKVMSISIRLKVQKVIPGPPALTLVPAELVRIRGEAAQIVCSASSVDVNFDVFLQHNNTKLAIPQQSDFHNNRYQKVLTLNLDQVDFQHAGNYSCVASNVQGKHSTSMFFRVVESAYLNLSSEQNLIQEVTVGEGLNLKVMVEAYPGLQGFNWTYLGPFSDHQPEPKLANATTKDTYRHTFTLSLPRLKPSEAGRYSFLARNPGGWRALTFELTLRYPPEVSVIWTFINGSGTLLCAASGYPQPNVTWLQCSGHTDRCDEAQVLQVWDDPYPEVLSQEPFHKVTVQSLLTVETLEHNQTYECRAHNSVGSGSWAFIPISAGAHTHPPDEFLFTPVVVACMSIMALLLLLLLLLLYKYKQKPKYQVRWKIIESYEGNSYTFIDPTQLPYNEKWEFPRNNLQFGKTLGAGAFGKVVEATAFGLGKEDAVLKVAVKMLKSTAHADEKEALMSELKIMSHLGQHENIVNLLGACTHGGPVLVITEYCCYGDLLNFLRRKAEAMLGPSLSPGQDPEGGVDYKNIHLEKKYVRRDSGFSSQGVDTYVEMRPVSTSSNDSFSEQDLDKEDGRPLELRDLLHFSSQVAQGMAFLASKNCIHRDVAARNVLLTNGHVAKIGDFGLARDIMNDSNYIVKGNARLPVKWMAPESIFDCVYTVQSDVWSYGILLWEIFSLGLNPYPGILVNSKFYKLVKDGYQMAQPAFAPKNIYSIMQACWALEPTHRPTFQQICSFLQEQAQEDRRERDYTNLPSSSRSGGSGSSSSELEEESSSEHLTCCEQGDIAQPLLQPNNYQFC
Sequence of Tyrosine-protein kinase receptor TYRO3 (Q06418 whole entry): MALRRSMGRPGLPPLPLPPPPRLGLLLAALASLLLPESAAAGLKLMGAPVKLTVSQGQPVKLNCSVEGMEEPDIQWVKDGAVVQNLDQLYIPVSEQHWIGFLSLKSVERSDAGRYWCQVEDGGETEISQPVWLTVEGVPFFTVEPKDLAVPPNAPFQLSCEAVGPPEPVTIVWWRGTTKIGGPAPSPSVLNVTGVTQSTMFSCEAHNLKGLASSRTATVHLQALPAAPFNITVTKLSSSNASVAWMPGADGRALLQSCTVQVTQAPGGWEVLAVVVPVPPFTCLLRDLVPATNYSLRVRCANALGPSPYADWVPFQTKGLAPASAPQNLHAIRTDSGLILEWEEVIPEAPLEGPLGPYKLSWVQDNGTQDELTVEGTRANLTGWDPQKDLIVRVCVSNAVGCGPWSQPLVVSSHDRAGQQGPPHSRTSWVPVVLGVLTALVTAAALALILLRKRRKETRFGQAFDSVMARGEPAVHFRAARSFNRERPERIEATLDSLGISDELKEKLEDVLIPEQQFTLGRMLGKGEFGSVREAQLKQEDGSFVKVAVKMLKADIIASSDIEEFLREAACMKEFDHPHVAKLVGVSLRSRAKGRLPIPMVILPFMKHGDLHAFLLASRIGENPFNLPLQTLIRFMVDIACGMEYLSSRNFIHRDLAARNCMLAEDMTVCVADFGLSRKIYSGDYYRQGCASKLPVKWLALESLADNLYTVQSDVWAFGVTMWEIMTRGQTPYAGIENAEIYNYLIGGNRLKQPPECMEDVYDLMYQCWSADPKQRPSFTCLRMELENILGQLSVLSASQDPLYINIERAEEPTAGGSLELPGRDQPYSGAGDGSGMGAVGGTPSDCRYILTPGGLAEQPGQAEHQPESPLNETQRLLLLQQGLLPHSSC
Sequence of Tyrosine-protein kinase Fer (P16591 whole entry): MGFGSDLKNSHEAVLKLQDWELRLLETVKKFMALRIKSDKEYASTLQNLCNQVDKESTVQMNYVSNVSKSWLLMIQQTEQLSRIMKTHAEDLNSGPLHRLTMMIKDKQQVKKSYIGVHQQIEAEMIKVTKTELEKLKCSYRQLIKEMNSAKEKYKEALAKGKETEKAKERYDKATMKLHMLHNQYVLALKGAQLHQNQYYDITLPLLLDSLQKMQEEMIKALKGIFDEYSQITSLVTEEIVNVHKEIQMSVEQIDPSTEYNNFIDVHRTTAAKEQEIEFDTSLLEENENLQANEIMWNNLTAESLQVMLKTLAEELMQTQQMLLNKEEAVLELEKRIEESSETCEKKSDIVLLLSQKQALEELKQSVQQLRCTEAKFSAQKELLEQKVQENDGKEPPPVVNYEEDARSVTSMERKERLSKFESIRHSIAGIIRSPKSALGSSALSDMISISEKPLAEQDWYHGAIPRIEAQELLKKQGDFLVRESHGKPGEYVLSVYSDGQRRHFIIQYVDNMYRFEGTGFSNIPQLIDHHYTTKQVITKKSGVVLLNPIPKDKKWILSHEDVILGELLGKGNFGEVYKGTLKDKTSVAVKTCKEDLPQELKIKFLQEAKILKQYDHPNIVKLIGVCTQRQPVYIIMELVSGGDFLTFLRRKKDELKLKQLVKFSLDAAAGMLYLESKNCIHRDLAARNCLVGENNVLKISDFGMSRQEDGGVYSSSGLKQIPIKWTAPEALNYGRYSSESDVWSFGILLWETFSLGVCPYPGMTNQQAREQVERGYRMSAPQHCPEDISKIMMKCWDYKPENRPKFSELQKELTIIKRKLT
Sequence of Insulin receptor (P06213 28-758 limits assumed): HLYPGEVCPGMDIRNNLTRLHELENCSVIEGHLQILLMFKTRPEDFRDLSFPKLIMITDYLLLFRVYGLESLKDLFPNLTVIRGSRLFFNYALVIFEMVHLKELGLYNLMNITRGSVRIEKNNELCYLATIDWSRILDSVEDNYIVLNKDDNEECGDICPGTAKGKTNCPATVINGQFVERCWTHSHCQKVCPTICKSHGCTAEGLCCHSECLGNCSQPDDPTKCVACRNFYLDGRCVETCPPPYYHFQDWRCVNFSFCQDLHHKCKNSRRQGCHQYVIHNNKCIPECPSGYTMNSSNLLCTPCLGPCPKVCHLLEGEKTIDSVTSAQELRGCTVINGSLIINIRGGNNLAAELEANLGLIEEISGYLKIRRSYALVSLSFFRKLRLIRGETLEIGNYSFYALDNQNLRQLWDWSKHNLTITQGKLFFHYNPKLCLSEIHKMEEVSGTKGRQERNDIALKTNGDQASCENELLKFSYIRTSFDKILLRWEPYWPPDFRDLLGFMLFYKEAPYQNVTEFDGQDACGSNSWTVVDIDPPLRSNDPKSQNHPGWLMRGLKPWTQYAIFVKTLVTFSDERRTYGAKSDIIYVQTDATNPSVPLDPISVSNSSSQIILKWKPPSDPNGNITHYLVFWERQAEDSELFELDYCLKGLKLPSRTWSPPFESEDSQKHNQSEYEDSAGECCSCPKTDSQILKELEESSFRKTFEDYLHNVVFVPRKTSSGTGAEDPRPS
Sequence of Insulin receptor (P06213 763-1382 limits assumed): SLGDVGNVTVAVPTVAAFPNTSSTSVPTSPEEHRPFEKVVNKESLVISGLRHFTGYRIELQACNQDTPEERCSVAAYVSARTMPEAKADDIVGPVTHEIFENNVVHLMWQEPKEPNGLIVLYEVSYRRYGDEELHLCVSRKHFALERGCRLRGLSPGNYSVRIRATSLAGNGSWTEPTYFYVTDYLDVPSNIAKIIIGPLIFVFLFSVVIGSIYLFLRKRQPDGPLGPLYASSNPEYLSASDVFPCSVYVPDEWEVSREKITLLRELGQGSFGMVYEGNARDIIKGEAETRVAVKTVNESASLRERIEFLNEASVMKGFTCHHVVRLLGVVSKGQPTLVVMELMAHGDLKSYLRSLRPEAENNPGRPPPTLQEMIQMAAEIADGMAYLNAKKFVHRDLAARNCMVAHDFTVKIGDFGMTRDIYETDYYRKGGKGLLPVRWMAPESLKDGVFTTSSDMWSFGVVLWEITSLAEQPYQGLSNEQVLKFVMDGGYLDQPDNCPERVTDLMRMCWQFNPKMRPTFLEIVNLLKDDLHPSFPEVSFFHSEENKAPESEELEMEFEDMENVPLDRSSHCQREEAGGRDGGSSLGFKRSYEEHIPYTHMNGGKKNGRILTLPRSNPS
Sequence of Tyrosine-protein kinase FRK (P42685 whole entry): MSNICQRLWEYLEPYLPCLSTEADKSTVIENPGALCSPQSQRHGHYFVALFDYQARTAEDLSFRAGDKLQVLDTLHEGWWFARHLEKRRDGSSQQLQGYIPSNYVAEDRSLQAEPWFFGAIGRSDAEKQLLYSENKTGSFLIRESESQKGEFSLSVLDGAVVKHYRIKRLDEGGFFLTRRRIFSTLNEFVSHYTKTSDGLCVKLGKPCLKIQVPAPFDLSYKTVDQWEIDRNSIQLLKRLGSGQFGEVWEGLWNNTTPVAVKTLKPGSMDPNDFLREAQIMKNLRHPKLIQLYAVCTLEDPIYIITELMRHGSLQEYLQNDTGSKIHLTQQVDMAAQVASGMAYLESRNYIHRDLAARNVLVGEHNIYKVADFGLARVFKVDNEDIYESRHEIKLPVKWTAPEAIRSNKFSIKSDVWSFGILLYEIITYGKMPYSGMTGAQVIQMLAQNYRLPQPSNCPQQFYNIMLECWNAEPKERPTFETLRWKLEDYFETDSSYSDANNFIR
Sequence of Cyclin-dependent kinase 7 (P50613 whole entry): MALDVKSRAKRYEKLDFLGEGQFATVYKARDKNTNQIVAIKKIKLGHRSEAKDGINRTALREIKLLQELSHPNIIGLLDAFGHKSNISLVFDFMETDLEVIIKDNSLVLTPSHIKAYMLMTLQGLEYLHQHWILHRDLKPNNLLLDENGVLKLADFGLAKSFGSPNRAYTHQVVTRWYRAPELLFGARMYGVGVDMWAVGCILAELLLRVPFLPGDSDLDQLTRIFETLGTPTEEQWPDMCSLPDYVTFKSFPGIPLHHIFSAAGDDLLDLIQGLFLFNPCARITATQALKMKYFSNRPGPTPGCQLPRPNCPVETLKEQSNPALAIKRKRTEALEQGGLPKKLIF

With `CN(C)c1ncc(C2=C(Cl)C(=O)C(N3CCCC3)=C(Cl)C2=O)s1` the IC50 [1] was 30.7 µM (inactive), the IC50 [2] was > 66.6 µM (inactive) and the IC50 (Beta-arrestin-1) was 10.7 µM (active).

For `Cc1ccc(C(=O)c2c(C)oc3c2C(=O)C(=O)c2ccccc2-3)cc1`, the IC50 [3] was > 50 µM (not active).

With `Cc1cnc(NC(=O)c2sc3ccccc3c2Cl)s1` the IC50 [4] was > 67.5 µM (inactive) and the EC50 [5] was > 67.5 µM (inactive).

In the case of `O=C1NC(=S)SC1=C1C(=O)Nc2ccc(Br)cc21`, the Ki [6] is reported as > 2 µM (inactive), the Ki [7] is reported as > 7.94 µM (inactive) and the Ki [8] is reported as > 2 µM (inactive). The Ki (SRSF protein kinase 1) was 6.31 µM (active), the Ki [9] was > 1.26 µM (inactive) and the Ki [10] was > 5.01 µM (inactive). For the same compound, the Ki [11] was > 1.58 µM (inactive), the Ki (Insulin receptor) was > 5.01 µM (inactive) and the Ki [12] was > 1.58 µM (inactive). The Ki [13] was 0.316 µM (active), the Ki [14] was > 2 µM (inactive) and the Ki [15] was > 7.94 µM (inactive). For the same compound, the Ki [16] was 0.631 µM (active), the Ki [17] was > 6.31 µM (inactive) and the Ki [18] was > 1.58 µM (inactive). The Ki [19] was > 1.58 µM (inactive), the Ki [20] was > 7.94 µM (inactive) and the Ki [21] was > 2.51 µM (inactive). The Ki [22] was > 2.51 µM (inactive).

In the case of `Cc1ccc(Nc2cc(C)nn2-c2nc(C)cc(O)n2)cc1`, the EC50 (Beta-galactosidase) is reported as > 40 µM (inactive) and the EC50 [23] is reported as 22.4 µM (active).
